From patent US20250127842A1, “IMMUNE […] THERAPEUTIC NANOPARTICLES” (priority 2021, published 2025)

Test system: ID8-vegfA-defb29 murine ovarian serous carcinoma cell line
Experiment: CPMV and CPMV-AUNP therapy in a tumor mouse model (serous ovarian cancer, IP)
Type: in vivo, C57BL/6J mice
Experimental: FIGS. 3A-3B: (FIG. 3A) Female C57BL/6 mice were inoculated (i.p.) with 2×10^6 ID8-Defb29/Vegf-A cells followed by six weekly injections (i.p.) of PBS control (n=5), 1 μg AUNP (n=3), 100 μg CPMV (n=5), 100 μg CPMV-AUNP (n=7), 100 μg CPMV+1 μg AUNP physical mixture (n=7). Body weight was measured to monitor tumor growth. Data are means±SEM. Data are plotted for a minimum of n=3 per group. (FIG. 3B) Survival curves of the treatment groups.
CPMV and CPMV-AUNP therapy in a tumor mouse model: All animal studies were conducted upon approval and in accordance with the University of California, San Diego Institutional Animal Care and Use Committee (IACUC) guidelines. […] Tumor burden was measured by increase in body weight and data were analyzed and plotted using Graphpad Prism software.
To assay efficacy of the CPMV-AUNP nanoparticle, Applicant used a mouse model of serous ovarian cancer. […] Applicant used luciferase-labeled ID8defb29/vegf cells, allowing us to quantify the disease burden and establishment of disease (data not shown). Imaging is only informative at early time points, before the development of ascites, therefore Applicant used imaging to confirm successful tumor cell injection and tumor formation but then monitored body weight to assess tumor burden and 35 grams body weight was defined as the endpoint for the study. […]

SNTSESFGSGGGSGGC [AUNP, anti-PD-1 peptide SNTSESF (side branch of AUNP-12) with GSGGGSGG linker and carboxy-terminal cysteine, from Genscript]
tumor burden as measured by increase in body weight (1 μg weekly IP, up to day 47 (group removed for non-treatment related reasons)): matched closely the PBS control group
efficacy against disseminated ovarian tumors (survival, tumor burden), in words (weekly IP: 100 μg CPMV or CPMV-AUNP, 1 μg AUNP, or 100 μg CPMV+1 μg AUNP): no apparent effect
